Like-named read-outs stand apart in the source and are kept apart here. Starred links: 1 amine or outer side, 2 acyl side, 3 side chain; linkers in the order of their positions; H or OH if unused. Positions of bridges follow the written chain, without caps; N, C: chain ends. Non-standard residues stand in square brackets, D forms with d. Residues, ends and D or L forms follow the SMILES beside them. *: point of attachment. Phe(4-(CH2)5CO) = O=C([C@H](Cc1ccc(CCCCCC(=O)[*:3])cc1)N[*:1])[*:2]; Phe(3-(CH2)4CO) = O=C([C@H](Cc1cccc(CCCCC(=O)[*:3])c1)N[*:1])[*:2]; NEtPhe = CCN[C@@H](Cc1ccccc1)C(=O)O; NMeF = CN[C@@H](Cc1ccccc1)C(=O)O; NMeI = CC[C@H](C)[C@H](NC)C(=O)O; NMeβAla = CN(CCC(=O)[*:2])[*:1]; AllylGly = C=CC[C@H](N)C(=O)O; NMeL = CN[C@@H](CC(C)C)C(=O)O; NMeV = CN[C@H](C(=O)O)C(C)C; NMeA = CN[C@@H](C)C(=O)O; Piperidide = C1CCN(*)CC1; dNMeA = CN[C@H](C)C(=O)O; Aze = O=C(O)[C@@H]1CCN1; Sar = CNCC(=O)O; tBu = CC(C)(C)*
Test: Metabolic stability in human hepatic microsome
Type: in vitro ADME
Settings: microsomes
[1] = pH 7.4, human hepatic microsome, NADPH(+), read-out: CL NADPH(+)

| Compound | microsomal CLint at 1 uM [1] [µL/min/mg] | microsomal CLint at 1 uM (human, pH 7.4, CL NADPH(+)) [µL/min/mg] |
| --- | --- | --- |
| CC[C@H](C)[C@H]1C(=O)N[C@@H](COC(C)(C)C)C(=O)N(C)[C@@H](Cc2ccccc2)C(=O)N(C)[C@@H](C(C)C)C(=O)N[C@H](C(=O)N2CCCCC2)Cc2cccc(c2)CCCCC(=O)N(C)[C@@H](Cc2ccccc2)C(=O)N[C@@H](CC(C)C)C(=O)N(C)[C@@H](CC(C)C)C(=O)N[C@@H]([C@@H](C)O)C(=O)N(C)CC(=O)N1C [DP-853] ([NMeF]L[NMeL]T[Sar][NMeI]S(tBu)[NMeF][NMeV][Phe(3-(CH2)4CO)]-Piperidide; lactam N-10) | 120 | – |
| CC[C@H](C)[C@@H]1NC(=O)[C@H](CC(C)C)N(C)C(=O)[C@H](Cc2ccccc2)N(C)C(=O)CCCCCc2ccc(cc2)C[C@@H](C(=O)N2CCCCC2)NC(=O)[C@H](CC(C)C)N(C)C(=O)[C@H](C)N(C)C(=O)[C@H]([C@@H](C)O)NC(=O)[C@H](Cc2ccccc2)N(C)C(=O)[C@H](C)N(C)C1=O [DP-835] ([NMeF][NMeL]I[NMeA][NMeF]T[NMeA][NMeL][Phe(4-(CH2)5CO)]-Piperidide; lactam N-9) | 497 | – |
| CC[C@H](C)[C@H](NC(=O)[C@H](Cc1ccccc1)N(C)C(=O)[C@H](Cc1ccccc1)N(C)C(=O)[C@@H]1CC(=O)N(C)CCC(=O)N(C)[C@@H](CC(C)C)C(=O)N(C)[C@@H](Cc2ccccc2)C(=O)N[C@@H](CC(C)C)C(=O)N(C)[C@@H](CC(C)C)C(=O)N(C)[C@@H](CC(C)C)C(=O)N[C@@H]([C@@H](C)O)C(=O)N(C)[C@@H](C)C(=O)N1)C(=O)N1CCCCC1 [DP-960] ([NMeβAla][NMeL][NMeF]L[NMeL][NMeL]T[NMeA]D[NMeF][NMeF]I-Piperidide; lactam N-9) | 36 | – |
| CC[C@H](C)[C@@H]1NC(=O)[C@H](CC(C)C)N(C)C(=O)CNC(=O)[C@H](C)NC(=O)C[C@@H](C(=O)N2CCCCC2)NC(=O)[C@@H]2CCCN2C(=O)[C@H](CC(C)C)NC(=O)[C@H](Cc2ccccc2)NC(=O)[C@H]([C@@H](C)O)NC(=O)[C@H](Cc2ccccc2)N(C)C(=O)[C@H](C)N(C)C1=O [DP-30] (AG[NMeL]I[NMeA][NMeF]TFLPD-Piperidide; lactam N-11) | – | 63 |
| C=C1CCC(=O)N[C@@H](COC(C)(C)C)C(=O)N(CCC)CC(=O)N(C)[C@@H](CC(C)C)C(=O)N[C@@H]([C@@H](C)O)C(=O)N(C)[C@@H](Cc2ccccc2)C(=O)N(C)[C@@H](CC(C)C)C(=O)N(C)[C@@H]([C@@H](C)CC)C(=O)N(C)[C@@H](C)C(=O)N[C@H](C(=O)N2CCCCC2)Cc2ccc1cc2 [DP-839] | 91 | – |
| C=CC[C@@H]1NC(=O)[C@H](CC(C)C)N(C)C(=O)[C@H](CC(C)C)N(C)C(=O)CNC(=O)[C@H](Cc2ccccc2)N(C)C(=O)[C@H]([C@@H](C)O)NC(=O)[C@H](CC(C)C)N(C)C(=O)[C@H](Cc2ccccc2)NC(=O)[C@H](C)NC(=O)C[C@@H](C(=O)N(C)[C@@H](Cc2ccccc2)C(=O)N[C@@H](C)C(=O)N2CCCCC2)NC1=O [DP-611] (AF[NMeL]T[NMeF]G[NMeL][NMeL][AllylGly]D[NMeF]A-Piperidide; lactam N-10) | 20 | – |
| CC[C@H](C)[C@H]1C(=O)N(C)[C@@H](C)C(=O)N(C)[C@@H](Cc2ccccc2)C(=O)N[C@@H]([C@@H](C)O)C(=O)N(C)[C@@H](Cc2ccccc2)C(=O)N(C)[C@@H](CC(C)C)C(=O)N2CCC[C@H]2C(=O)N[C@H](C(=O)N2CCCCC2)Cc2cccc(c2)CCCCC(=O)NCC(=O)N(C)[C@@H](CC(C)C)C(=O)N1C [DP-860] (G[NMeL][NMeI][NMeA][NMeF]T[NMeF][NMeL]P[Phe(3-(CH2)4CO)]-Piperidide; lactam N-10) | 322 | – |
| CC(C)C[C@H]1C(=O)N(C)[C@@H](CC(C)C)C(=O)N[C@@H](Cc2c[nH]c3ccccc23)C(=O)N[C@H](C(=O)N(C)[C@@H](Cc2ccccc2)C(=O)N[C@@H](C)C(=O)N2CCCCC2)CC(=O)N[C@@H](C)C(=O)N[C@@H](Cc2ccccc2)C(=O)N(C)[C@@H](CC(C)C)C(=O)N[C@@H]([C@@H](C)O)C(=O)N(C)[C@@H](Cc2ccccc2)C(=O)NCC(=O)N1C [DP-608] (AF[NMeL]T[NMeF]G[NMeL][NMeL]WD[NMeF]A-Piperidide; lactam N-10) | 13 | – |
| CCN1C(=O)[C@H](C)NC(=O)[C@H](Cc2ccccc2)N(C)C(=O)[C@H](CC(C)C)N(C)C(=O)[C@H](CC(C)C)NC(=O)[C@@H](C)N(C)C(=O)C[C@@H](C(=O)N2CCCCC2)NC(=O)[C@H](CC(C)C)N(C)C(=O)CN(C)C(=O)[C@H]([C@@H](C)O)NC(=O)[C@H](CC(C)C)N(C)C(=O)[C@@H]1Cc1ccccc1 [DP-637] ([dNMeA]L[NMeL][NMeF]A[NEtPhe][NMeL]T[Sar][NMeL]D-Piperidide; lactam N-11) | 56 | – |
| CC[C@H](C)[C@@H]1NC(=O)[C@H](Cc2ccccc2)N(C)C(=O)[C@H](Cc2ccccc2)NC(=O)[C@H](CC(C)C)NC(=O)[C@H](CC(C)C)N(C)C(=O)[C@H](C)N(C)C(=O)[C@H](C(C)C)NC(=O)[C@H](C)NC(=O)C[C@@H](C(=O)N2CCCCC2)NC(=O)[C@H](CC(C)C)N(C)C(=O)[C@H]([C@@H](C)O)NC(=O)[C@@H]2CCCN2C1=O [DP-25] (AV[NMeA][NMeL]LF[NMeF]IPT[NMeL]D-Piperidide; lactam N-12) | – | 24 |
| CC(C)C[C@@H]1NC(=O)[C@H](CC(C)C)N(C)C(=O)[C@H](Cc2ccccc2)NC(=O)[C@H](C)N(C)C(=O)C[C@@H](C(=O)N2CCCCC2)NC(=O)[C@H](Cc2ccccc2)NC(=O)[C@@H]2CCCN2C(=O)[C@H]([C@@H](C)O)NC(=O)[C@H](CC(C)C)N(C)C(=O)CNC(=O)[C@@H]2CCN2C1=O [DP-554] ([NMeA]F[NMeL]L[Aze]G[NMeL]TPFD-Piperidide; lactam N-11) | 80 | – |
| C=C1CCC(=O)N[C@@H](CC(C)C)C(=O)N[C@@H](Cc2ccccc2)C(=O)N[C@@H]([C@@H](C)O)C(=O)N[C@@H](CC(C)C)C(=O)N(C)[C@@H](C)C(=O)N[C@@H](Cc2ccccc2)C(=O)NCC(=O)N[C@@H](C(C)C)C(=O)N[C@@H](CC(C)C)C(=O)N[C@@H](C)C(=O)N(C)[C@@H](CC(C)C)C(=O)N[C@H](C(=O)N2CCCCC2)Cc2ccc1cc2 [DP-898] | 21 | – |
| CC[C@H](C)[C@@H]1NC(=O)[C@H](Cc2ccccc2)N(C)C(=O)[C@H](Cc2ccccc2)NC(=O)[C@H](CC(C)C)N(C)C(=O)[C@H](C(C)C)NC(=O)[C@H](CC(C)C)NC(=O)[C@H](C)N(C)C(=O)CNC(=O)[C@H](C)NC(=O)C[C@@H](C(=O)N2CCCCC2)NC(=O)[C@H]([C@@H](C)O)NC(=O)[C@H](CC(C)C)NC(=O)[C@H](C)N(C)C1=O [DP-83] (AG[NMeA]LV[NMeL]F[NMeF]I[NMeA]LTD-Piperidide; lactam N-13) | 39 | – |
| CC[C@H](C)[C@@H]1NC(=O)[C@H](C)NC(=O)C[C@@H](C(=O)N2CCCCC2)NC(=O)[C@H](Cc2ccccc2)NC(=O)[C@H](C(C)C)NC(=O)[C@H](CC(C)C)NC(=O)[C@H](C)NC(=O)[C@H](Cc2ccccc2)N(C)C(=O)[C@H]([C@@H](C)O)NC(=O)[C@H](CC(C)C)NC(=O)[C@H](CC(C)C)N(C)C1=O [DP-13] (AI[NMeL]LT[NMeF]ALVFD-Piperidide; lactam N-11) | – | 66 |

Source: patent US9409952B2, “Peptide-compound cyclization method” (Chugai Seiyaku Kabushiki Kaisha, priority 2011, dated 2016)
